The values that follow come from ChEMBL document CHEMBL1681723, “Phellinstatin, a new inhibitor of enoyl-ACP reductase produced by the medicinal fungus Phellinus linteus” (Bioorg Med Chem Lett, 2011).

Assay [1] has as its system Staphylococcus aureus. Kind of assay: Antibacterial activity against Staphylococcus aureus RN4220 at 128 ug/ml. Format: functional, organism-based.
The target in assay [2] is T1, Enoyl-[acyl-carrier-protein] reductase [NADPH] FabI (Staphylococcus aureus, UniProt Q6GI75).
T1 sequence (Q6GI75 whole entry): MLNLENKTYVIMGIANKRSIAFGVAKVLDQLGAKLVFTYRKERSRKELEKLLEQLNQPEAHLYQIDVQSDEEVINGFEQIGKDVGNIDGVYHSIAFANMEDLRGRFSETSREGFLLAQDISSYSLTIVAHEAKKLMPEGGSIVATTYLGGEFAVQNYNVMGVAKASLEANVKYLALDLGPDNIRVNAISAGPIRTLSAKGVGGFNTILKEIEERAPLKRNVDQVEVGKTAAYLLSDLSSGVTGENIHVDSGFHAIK
Kind of assay: (§1) Inhibition of Staphylococcus aureus enoyl-ACP reductase assessed as increase of NADPH level.

For assay [3], the system named is Staphylococcus aureus. The assay is described as follows: Antibacterial activity against methicillin-resistant Staphylococcus aureus CCARM 3167 at 128 ug/ml. Format: functional, organism-based.
In assay [4] the target is T2, Enoyl-[acyl-carrier-protein] reductase [NADPH] FabI (Staphylococcus aureus) (UniProt Q6GI75).
T2 sequence (whole entry): T1 sequence (Q6GI75 whole entry)
The description is as §1.

Assay [5] deals with Staphylococcus aureus. The assay is described as follows: Antibacterial activity against Staphylococcus aureus RN4220. Format: functional.
Assay [6] has as its system Staphylococcus aureus. The assay is described as follows: Antibacterial activity against methicillin-resistant Staphylococcus aureus CCARM 3167. Format: functional.

The structures appear in SMILES notation. In brackets after ≈: the same amount, converted by molar mass. Activity calls are given as the source filed them. No cut-off for these calls is given here.

Take `O=c1cc(O)cc([C@H]2c3c(cc(/C=C/c4ccc(O)c(O)c4)oc3=O)O[C@@H]2c2ccc(O)c(O)c2)o1` [HYPHOLOMINE B]: the outcome in the assay on Staphylococcus aureus [1] and with Staphylococcus aureus [3] was inactive. The IC50 in assay [2] stood at 15.3 µM.

In the case of `O=c1cc(O)cc([C@H]2c3c(cc(/C=C/c4cc(O)c(O)cc4-c4c(O)cc(/C=C/c5ccc(O)c(O)c5)oc4=O)oc3=O)O[C@@H]2c2ccc(O)c(O)c2)o1` [PHELLINSTATIN], the IC50 in assay [2] is 6 µM. Also, in assay [4], the inhibition result is “Dose-dependent effect”. Moreover, the MIC against Staphylococcus aureus [5] and in the assay on Staphylococcus aureus [6] was 128 mg/L (≈ 174 µM) throughout.

In general, IC50 refers to the concentration that gives 50% inhibition. For orientation: MIC means the least concentration at which growth counts as inhibited. Lower therefore signals a more susceptible organism.
